Laboratory results published in the supplement of paper PMC10307832.

Assays:
Assay in all cases: relative viability (nuclei count vs DMSO), 5 days (fraction); higher = more cells survive
BAM7 + Decitabine = compound: CCOC1=CC=CC=C1N=NC2=C(NN(C2=O)C3=NC(=CS3)C4=CC=CC=C4)C [BAM7] + Nc1ncn([C@H]2C[C@H](O)[C@@H](CO)O2)c(=O)n1 [Decitabine] (partner 2 µM)
Procedure, shortened: (§1)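 Medians of duplicate plates are given as relative viability. That measure is the nuclei count in treated wells divided by the count in vehicle wells. Counts were taken on 4× images of lung cancer cell lines in 1536-well plates, 5 days after pin-tool dosing the day after seeding with one drug alone or a fixed anchor-drug dose plus five library-drug doses (not always all listed) in √10 steps.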

BAM7 + Pictilisib = compound: CCOC1=CC=CC=C1N=NC2=C(NN(C2=O)C3=NC(=CS3)C4=CC=CC=C4)C [BAM7] + CS(=O)(=O)N1CCN(Cc2cc3nc(-c4cccc5[nH]ncc45)nc(N4CCOCC4)c3s2)CC1 [Pictilisib] (partner 1 µM)
Procedure, shortened: as §1

[1] = compound: CCn1c(-c2nonc2N)nc2c(C#CC(C)(C)O)ncc(OC[C@H]3CCCNC3)c21 + NC(=O)Nc1cc(-c2cccc(F)c2)sc1C(=O)N[C@H]1CCCNC1 [AZD7762] (partner 0.2 µM)
Procedure, shortened: as §1

[2] = compound: CCn1c(-c2nonc2N)nc2c(C#CC(C)(C)O)ncc(OC[C@H]3CCCNC3)c21 + CC(=O)Nc1cccc(-n2c(=O)n(C3CC3)c(=O)c3c(Nc4ccc(I)cc4F)n(C)c(=O)c(C)c32)c1 [Trametinib] (partner 0.02 µM)
Procedure, shortened: as §1

Cell Line | relative viability (BAM7 + Decitabine; first compound 0.5 µM) | relative viability (BAM7 + Decitabine; first compound 5 µM) | relative viability (BAM7 + Decitabine; first compound 15.81 µM) | relative viability (BAM7 + Decitabine; first compound 50 µM) | relative viability (BAM7 + Pictilisib; first compound 0.5 µM) | relative viability (BAM7 + Pictilisib; first compound 5 µM) | relative viability (BAM7 + Pictilisib; first compound 15.81 µM) | relative viability (BAM7 + Pictilisib; first compound 50 µM) | relative viability ([1]; first compound 0.01 µM) | relative viability ([1]; first compound 0.03162 µM) | relative viability ([1]; first compound 0.1 µM) | relative viability ([1]; first compound 0.3162 µM) | relative viability ([1]; first compound 1 µM) | relative viability ([2]; first compound 0.01 µM) | relative viability ([2]; first compound 0.03162 µM) | relative viability ([2]; first compound 0.1 µM) | relative viability ([2]; first compound 0.3162 µM) | relative viability ([2]; first compound 1 µM)
NCI-H3122 | 0.506 | 0.514 | 0.447 | 0.444 | 0.75 | 0.689 | 0.685 | 0.694 | 1.01 | 1.03 | 0.997 | 0.975 | 1.04 | 0.242 | 0.224 | 0.236 | 0.192 | 0.242
PC-3 [JPC-3] | 0.775 | 0.808 | 0.688 | 0.766 | 0.693 | 0.736 | 0.612 | 0.631 | 0.724 |  | 0.796 | 0.692 | 0.859 | 0.702 |  | 0.732 | 0.648 | 0.687
PC-14 | 0.243 | 0.183 | 0.208 | 0.208 | 0.775 | 1.02 | 0.598 | 0.656 | 0.31 | 0.285 | 0.356 | 0.31 | 0.342 | 0.716 | 0.772 | 0.613 | 0.446 | 0.444
RERF-LC-KJ | 0.617 | 0.615 | 0.398 | 0.48 | 0.551 | 0.496 | 0.492 | 0.515 | 1 | 1.07 | 0.949 | 0.867 | 1.05 | 0.854 | 0.818 | 0.842 | 0.778 | 0.835
